From patent US20220218679A1, “NOVEL COMPOUNDS AND PHARMACEUTICAL COMPOSITIONS THEREOF FOR THE TREATMENT OF INFLAMMATORY DISORDERS” (Galapagos NV, priority 2019, published 2022)
pIC50: −log10 of the molar value.

Key:
Human Hepatocyte = assay: Metabolic stability in hepatocytes (human); format: in vitro ADME; details: 1 μM test compound, cryopreserved human hepatocytes
Experimental: 4.6. Metabolic Stability in Hepatocytes
The aim of this assay is to determine the metabolic stability of the compound in hepatocytes (cryopreserved) of different species. Low hepatocyte stability may result in the formation of unwanted metabolites, high clearance, and therefore is not desirable.
The decrease in parent was assessed by measuring the percentage remaining by LC-MS/MS analysis.
A 10 mM stock solution of test compound in DMSO was first diluted in DMSO to 3 mM, and then in modified Krebs-Henseleit buffer (Sigma, K3753) to 5 μM. This compound dilution was added to a suspension of pooled cryopreserved hepatocytes (BioreclamationIVT) at 37° C. under gentle shaking.
Final reaction conditions were: 1 μM of test compound, 0.03% DMSO, 0.5 million viable hepatocytes/mL, and 75 μL incubation volume.
Testosterone (1 μM) and 7-hydroxycoumarin (1 μM) were used, respectively as phase I and phase II metabolic reaction controls.
After 0, 10, 20, 45, 90, 120 and 180 min of incubation, the reaction was terminated with 225 μL of MeCN:MeOH (2:1) containing 100 ng/mL of diclofenac as analytical internal standard. Samples were mixed, centrifuged and the supernatant analyzed by LC-MS/MS.
The instrument responses (ratios of test compound and internal standard peak areas) were referenced to the zero time point samples (considered as 100%) in order to determine the percentage of compound remaining.
Plots of percentage compound remaining were used to determine the intrinsic clearance in the hepatocyte incubations using the following equations:
Scaled Clint [L/h/kg]=Clint[μL/min/10^6 cells]*#(10^6) cells/g liver*60*( 1/10^6) Scaled Clint unbound [L/h/kg]=Clint [L/h/kg]/Fu,inc where: fu,inc equals hepatocyte binding, derived from microsomal binding (fu,mic) by following equation: […]

human IRAK-4 = target: T1, human IRAK-4 (Homo sapiens, UniProt Q9NWZ3); assay: Phosphorylation IC50 determination for human IRAK-4 (ADP-Glo kinase assay); format: biochemical; details: RIP140 substrate, Km ATP, read-out: IRAK4 IC50
T1 construct: purchased Carna Biosciences 09 145
T1 sequence (Q9NWZ3 1-460): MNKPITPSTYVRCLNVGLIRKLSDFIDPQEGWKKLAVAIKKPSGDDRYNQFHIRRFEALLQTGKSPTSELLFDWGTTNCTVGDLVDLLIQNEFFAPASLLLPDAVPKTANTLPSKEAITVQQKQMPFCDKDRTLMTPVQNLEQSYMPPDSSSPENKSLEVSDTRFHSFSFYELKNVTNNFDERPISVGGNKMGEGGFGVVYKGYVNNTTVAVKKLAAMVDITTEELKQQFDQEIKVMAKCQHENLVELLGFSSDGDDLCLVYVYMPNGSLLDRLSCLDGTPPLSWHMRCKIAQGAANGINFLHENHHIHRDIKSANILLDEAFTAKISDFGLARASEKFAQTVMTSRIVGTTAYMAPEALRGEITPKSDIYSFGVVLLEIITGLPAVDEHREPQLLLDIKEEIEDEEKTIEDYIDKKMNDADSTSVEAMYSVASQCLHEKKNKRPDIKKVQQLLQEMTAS
Experimental: 3.1. Phosphorylation IC50 Determination for Human IRAK-4
The phosphorylation of the substrate RIP140 (SEQ IDi1) by IRAK4 at Km ATP was detected with the ADP-Glo Kinase Assay (Promega, Cat #V9103), a luminescent kinase assay which measures the ADP formed from a kinase reaction. (Zegzouti et al., 2009) In a second step the kinase reaction is terminated and all the remaining ATP was depleted. In a final step the ADP was converted into ATP and this newly synthesized ATP was measured by using a luciferase/luciferin reaction with a luminescent reader. The luminescent signal positively correlated with kinase activity, in particular kinase inhibition giving a decrease of the luminescent signal.
For the semi-automated assay, the positive control (100% inhibition) was prepared by diluting 10 mM staurosporine stock mixture (20 μL) in water (3.8 mL) and DMSO (180 μL), thus resulting in a […] staurosporine solution at 1% DMSO (final concentration after further dilution in the kinase reaction).
For the automated assay, no pre-dilution of the 10 mM staurosporine stock was made. 10 mM staurosporine was spotted directly in the assay plate using acoustic dispensing and complemented with DMSO to result in a similar final concentration as mentioned above.
For the semi-automated assay, the negative control (0% inhibition) was prepared by mixing water (3.8 mL) and DMSO (200 μL) resulting in a final concentration of 1% DMSO after further dilution in the kinase reaction. For the automated assay no pre-dilution of DMSO was done. 100% DMSO was spotted directly on the assay plate.
The assay buffer solution was prepared at a concentration corresponding to 5 fold the final (most diluted) assay concentration by mixing a solution of 125 mM TRIS pH 7.5+0.05% Triton X-100+2.5 mM EGTA (5.27 mL) with 1M MgCl2 (72 μL), 1M DTT (57.6 μL), and 200 mM MnCl2 (360 μL).
For example, for the semi-automated method, the enzyme-substrate mixture was prepared by mixing water (3999 μL), assay buffer solution (1380 μL), 1 mM RIP140 (138 μL—SEQ ID1), and 200 ng/mL IRAK 4 (3.45 μL Carna Biosciences, 09 145).
For semi-automated method, the ATP mixture was prepared at a concentration corresponding to 2.5 fold the final (most diluted) assay concentration of the semi-automated method and 1.5 fold the final (most diluted) assay concentration of the automated method. For example, for the semi-automated method, the ATP mixture was prepared by mixing water (4126 μL), assay buffer solution (1380 μL), and 10 mM ATP (13.80 μL).
The assay was performed either in a semi-automated or fully automated manner. The assay volume and the incubation time of the ADP detection were different accordingly the method used.
3.1.3.1. Semi-Automated Assay
The compounds were prepared as a serial dilution of 10 point dose responses with 1/5 dilution steps in 100% DMSO starting from 2 mM highest concentration, diluted 1/20 in water. 1 μL was transferred dry to the assay plates.
On each assay plate 32 wells of each control (positive & negative) were added, followed by 2 μL enzyme-substrate mixture.
The reaction was started by adding 2 μL diluted ATP (final concentration Km ATP) on the assay plates. Plates were centrifuged for a few seconds at 1000 rpm followed by an incubation at r.t. for 120 min.
The reactions were stopped and the unconsumed ATP was depleted by adding 5 μL ADP-glo Reagent (Promega, Cat #V9103) to the reaction. The plates were quickly centrifuged at 1000 rpm and incubated at r.t. for 40 min corresponding to full ATP depletion.
The ADP was converted back to ATP and luciferase and luciferin were introduced to detect ATP by adding 10 μL kinase detection reagent (Promega, Cat #V9103) to the reaction. The plates were centrifuged for a few seconds at 1000 rpm and incubated at r.t. for a further 30 min.
Luminescent read out was performed on an Envision luminescent reader (Perkin Elmer). […]

Compound | Human Hepatocyte stability (Perc. remaining at 90 min) (Human Hepatocyte) | pIC50 (human IRAK-4)
CNC(=O)c1cn2nc(CCC(C)(C)O)cc2cc1NC(=O)c1cccc(C(F)F)n1 [Compound 19, 5-[[6-(difluoromethyl)pyridine-2-carbonyl]amino]-2-(3-hydroxy-3-methyl-butyl)-N-methyl-pyrazolo[1,5-a]pyridine-6-carboxamide] |  | 8.30 to 10.00
COc1cn2nc(CC(F)C(C)(C)O)cc2cc1NC(=O)c1cccn(C2CC2)c1=O (single isomer, unassigned; enantiomer a) [Compound 25, 1-cyclopropyl-N-[2-(2-fluoro-3-hydroxy-3-methyl-butyl)-6-methoxy-pyrazolo[1,5-a]pyridin-5-yl]-2-oxo-pyridine-3-carboxamide Enantiomer A] | 97.2 Perc. | 8.30 to 10.00
CCOc1cn2nc(CCC(C)(C)O)cc2cc1NC(=O)c1cccn(C2CC2)c1=O [Compound 17, 1-cyclopropyl-N-[6-ethoxy-2-(3-hydroxy-3-methyl-butyl)pyrazolo[1,5-a]pyridin-5-yl]-2-oxo-pyridine-3-carboxamide] | 87.25 Perc. | 8.30 to 10.00
CCOc1cn2nc(CCC(C)(C)O)cc2cc1NC(=O)c1cccn(C(F)F)c1=O [Compound 9, 1-(difluoromethyl)-N-[6-ethoxy-2-(3-hydroxy-3-methyl-butyl)pyrazolo[1,5-a]pyridin-5-yl]-2-oxo-pyridine-3-carboxamide] | 85.6 Perc. | 8.00 to 8.30
CNC(=O)c1cn2nc(C3CCOCC3)cc2cc1NC(=O)c1cccc(C(F)F)n1 [Compound 15, 5-[[6-(difluoromethyl)pyridine-2-carbonyl]amino]-N-methyl-2-tetrahydropyran-4-yl-pyrazolo[1,5-a]pyridine-6-carboxamide] |  | 8.30 to 10.00
COc1cn2nc(CCC(C)(C)O)cc2cc1NC(=O)c1cccn(C(F)F)c1=O [Compound 7, 1-(difluoromethyl)-N-[2-(3-hydroxy-3-methyl-butyl)-6-methoxy-pyrazolo[1,5-a]pyridin-5-yl]-2-oxo-pyridine-3-carboxamide] |  | 8.00 to 8.30
COc1cn2nc(CCC(C)(C)O)cc2cc1NC(=O)c1cccn(C)c1=O [Compound 2, N-[2-(3-hydroxy-3-methylbutyl)-6-methoxypyrazolo[1,5-a]pyridin-5-yl]-1-methyl-2-oxopyridine-3-carboxamide] | 100.45 Perc. | 8.30 to 10.00
CNC(=O)c1cn2nc(C3CCN(C)CC3)cc2cc1NC(=O)c1cccc(C(F)(F)F)n1 [Compound 12, N-methyl-2-(1-methyl-4-piperidyl)-5-[[6-(trifluoromethyl)pyridine-2-carbonyl]amino]pyrazolo[1,5-a]pyridine-6-carboxamide] |  | 8.30 to 10.00

The remaining lines, values ahead:

Human Hepatocyte stability (Perc. remaining at 90 min) (Human Hepatocyte) | pIC50 (human IRAK-4) | Compound
107 Perc. | 8.30 to 10.00 | CNC(=O)c1cn2nc(C3CCCS(=O)(=O)C3)cc2cc1NC(=O)c1cccc(C(F)(F)F)n1 (stereo not shown) [Compound 8, 2-(1,1-dioxothian-3-yl)-N-methyl-5-[[6-(trifluoromethyl)pyridine-2-carbonyl]amino]pyrazolo[1,5-a]pyridine-6-carboxamide]
90.8 Perc. | 8.30 to 10.00 | CCOc1cn2nc(CCC(C)(C)O)cc2cc1NC(=O)c1cccn(C)c1=O [Compound 18, N-[6-ethoxy-2-(3-hydroxy-3-methyl-butyl)pyrazolo[1,5-a]pyridin-5-yl]-1-methyl-2-oxo-pyridine-3-carboxamide]
97.8 Perc. | 7.30 to 8.00 | COc1cn2nc(CC(F)C(C)(C)O)cc2cc1NC(=O)c1cccn(C2CC2)c1=O (single isomer, unassigned; enantiomer b) [Compound 26, 1-cyclopropyl-N-[2-(2-fluoro-3-hydroxy-3-methyl-butyl)-6-methoxy-pyrazolo[1,5-a]pyridin-5-yl]-2-oxo-pyridine-3-carboxamide Enantiomer B]
 | 8.30 to 10.00 | CC(C)(O)CCc1cc2cc(NC(=O)c3cccc(C(F)(F)F)n3)c(C(N)=O)cn2n1 [Compound 4, 2-(3-hydroxy-3-methylbutyl)-5-[[6-(trifluoromethyl)pyridine-2-carbonyl]amino]pyrazolo[1,5-a]pyridine-6-carboxamide]
92.15 Perc. | 8.30 to 10.00 | COc1cn2nc(CCC(C)(C)O)cc2cc1NC(=O)c1cccn(C2CCC2)c1=O [Compound 21, 1-cyclobutyl-N-[2-(3-hydroxy-3-methyl-butyl)-6-methoxy-pyrazolo[1,5-a]pyridin-5-yl]-2-oxo-pyridine-3-carboxamide]
100.05 Perc. | 8.30 to 10.00 | COc1cn2nc(CC(F)C(C)(C)O)cc2cc1NC(=O)c1cccn(C2CC2)c1=O (stereo not shown) [Compound 22, 1-cyclopropyl-N-[2-(2-fluoro-3-hydroxy-3-methyl-butyl)-6-methoxy-pyrazolo[1,5-a]pyridin-5-yl]-2-oxo-pyridine-3-carboxamide]
101.45 Perc. | 8.30 to 10.00 | [2H]C([2H])([2H])C(O)(CCc1cc2cc(NC(=O)c3cccn(C4CC4)c3=O)c(OC)cn2n1)C([2H])([2H])[2H] [Compound 23, 1-cyclopropyl-N-[6-methoxy-2-[4,4,4-trideuterio-3-hydroxy-3-(trideuteriomethyl)butyl]pyrazolo[1,5-a]pyridin-5-yl]-2-oxo-pyridine-3-carboxamide]
